# Experimental data published in article PMC2739411 (Anesthesiology, 2009).
# Molecular target: γ-aminobutyric acid type A (GABAA) receptor α1β2γ2L (Homo sapiens, UniProt P14867+P47870)
# Experiment: two-electrode voltage clamp in oocytes
# Assay type: cell-based
# Details: read-out: % enhancement of EC5-10 GABA current at 8 μM
# Chain of γ-aminobutyric acid type A (GABAA) receptor α1β2γ2L (P47870 26-512): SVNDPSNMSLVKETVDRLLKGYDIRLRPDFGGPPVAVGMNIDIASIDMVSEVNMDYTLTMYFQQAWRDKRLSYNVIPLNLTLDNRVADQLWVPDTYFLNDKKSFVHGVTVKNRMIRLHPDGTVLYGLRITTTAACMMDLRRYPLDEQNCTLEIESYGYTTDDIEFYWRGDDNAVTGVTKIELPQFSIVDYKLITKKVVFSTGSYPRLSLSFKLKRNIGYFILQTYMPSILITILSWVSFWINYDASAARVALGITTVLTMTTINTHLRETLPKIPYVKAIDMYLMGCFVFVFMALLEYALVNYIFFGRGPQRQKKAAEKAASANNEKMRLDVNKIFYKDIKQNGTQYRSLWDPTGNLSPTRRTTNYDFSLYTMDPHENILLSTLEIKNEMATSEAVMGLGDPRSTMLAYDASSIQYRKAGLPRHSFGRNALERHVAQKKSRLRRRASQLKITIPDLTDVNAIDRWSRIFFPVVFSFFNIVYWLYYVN
# Chain of γ-aminobutyric acid type A (GABAA) receptor α1β2γ2L (P14867 28-456): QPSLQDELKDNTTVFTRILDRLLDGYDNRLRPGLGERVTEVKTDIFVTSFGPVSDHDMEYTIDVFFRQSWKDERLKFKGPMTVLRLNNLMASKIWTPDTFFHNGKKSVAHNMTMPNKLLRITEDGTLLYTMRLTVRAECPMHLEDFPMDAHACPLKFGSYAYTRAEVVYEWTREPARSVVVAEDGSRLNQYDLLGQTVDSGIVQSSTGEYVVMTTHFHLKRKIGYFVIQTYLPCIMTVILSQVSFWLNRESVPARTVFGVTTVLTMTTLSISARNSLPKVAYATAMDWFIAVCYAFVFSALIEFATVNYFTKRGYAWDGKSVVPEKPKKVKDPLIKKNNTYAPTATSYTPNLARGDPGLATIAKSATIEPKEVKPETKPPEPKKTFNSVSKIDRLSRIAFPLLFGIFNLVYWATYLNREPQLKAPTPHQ
# Chain of γ-aminobutyric acid type A (GABAA) receptor α1β2γ2L (P18507 40-475 partner): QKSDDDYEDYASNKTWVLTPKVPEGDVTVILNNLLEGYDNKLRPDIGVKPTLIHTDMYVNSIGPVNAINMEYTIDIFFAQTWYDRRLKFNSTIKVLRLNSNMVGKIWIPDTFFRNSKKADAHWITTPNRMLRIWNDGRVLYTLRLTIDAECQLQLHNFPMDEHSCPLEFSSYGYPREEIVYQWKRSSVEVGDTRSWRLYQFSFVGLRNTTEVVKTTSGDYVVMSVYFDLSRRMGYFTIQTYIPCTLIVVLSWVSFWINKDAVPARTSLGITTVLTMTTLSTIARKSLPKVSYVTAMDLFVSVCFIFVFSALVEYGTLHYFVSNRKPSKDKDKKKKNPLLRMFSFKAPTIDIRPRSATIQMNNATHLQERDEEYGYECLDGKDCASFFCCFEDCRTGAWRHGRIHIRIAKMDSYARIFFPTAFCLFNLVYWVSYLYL
smiles,measurement,value
"COC(=O)CCOC(=O)c1cncn1[C@H](C)c1ccccc1 [compound 3, (R)-3-methoxy-3-oxopropyl1-(1-phenylethyl)-1H-imidazole-5-carboxylate]",activation at 8 µM,450 ± 130%
